Data reported in patent US6264991A, “Compositions and methods for treating intracellular infections” (priority 1998, dated 2001).
In brackets after ≈: the same amount, converted by molar mass. Several values for one entry are separate records, joined by “and”; a condition that tells them apart may be missing. Equal entries are not always repeated. Where two headings read alike, the source gives them in different places.

Columns and labels:
[1] = tested on: Mycobacterium tuberculosis H37Rv; test: Minimal inhibitory concentration (Etest); type: cell-based, Mycobacterium tuberculosis H37Rv (ATCC 27294)
Text: Mycobacterium tuberculosis H37Rv (ATCC 27294, SRI #1345) was maintained on Middlebrook 7H1O agar slants, containing 0.5% glycerol and 10% OADC (Difco).

[2] = tested on: Mycobacterium tuberculosis; test: MIC for rifampicin, tuberculosis in primates
[3] = tested on: M. tuberculosis H37Rv; conditions: free drug, all three concentrations (0.25, 0.75, 2.0 μg/ml)
[4] = tested on: M. tuberculosis H37Rv; conditions: free rifampicin, all concentrations
[5] = tested on: M. tuberculosis H37Rv; conditions: for log10 CFU: individual mice; for log10 CFU / Mean log10 CFU: day 26

Compound: CO[C@H]1/C=C/O[C@@]2(C)Oc3c(C)c(O)c4c(O)c(c(/C=N/N5CCN(C)CC5)c(O)c4c3C2=O)NC(=O)/C(C)=C\C=C\[C@H](C)[C@H](O)[C@@H](C)[C@@H](O)[C@@H](C)[C@H](OC(C)=O)[C@@H]1C [Rifampicin]
- MIC [1]: 0.06 to 0.25 µg/mL (≈ 0.0729 to 0.304 µM)
- MIC ([1]; Etest, read-out: minimal inhibitory concentration (MIC)): 0.06 to 0.25 µg/mL (≈ 0.0729 to 0.304 µM)
- MIC [2]: 0.06 to 0.25 µg/mL (≈ 0.0729 to 0.304 µM)
- reduction in CFUs, J774 [3]: significant reduction in CFUs
- reduction of CFUs, MM6 [4]: significant reduction of CFUs
- log10 CFU ([5]; oral 0.42 mg/kg daily, 0.42 mg/kg): 5.86 log10 CFU and 5.66 log10 CFU and 5.59 log10 CFU and 5.72 log10 CFU and 5.95 log10 CFU and 5.88 log10 CFU and 5.7 log10 CFU and 6.15 log10 CFU
- Mean log10 CFU ([5]; oral 0.42 mg/kg daily): 5.62 log10 CFU
- log10 CFU ([5]; oral 1.25 mg/kg daily, 1.25 mg/kg): 5.97 log10 CFU and 5.71 log10 CFU and 5.69 log10 CFU and 5.64 log10 CFU and 5.47 log10 CFU and 5.44 log10 CFU and 5.62 log10 CFU and 5.88 log10 CFU and 5.72 log10 CFU
- Mean log10 CFU ([5]; oral 1.25 mg/kg daily): 5.68 log10 CFU
- log10 CFU ([5]; oral 5.0 mg/kg daily, 5 mg/kg): 5.45 log10 CFU and 5.31 log10 CFU and 5.10 log10 CFU and 5.43 log10 CFU and 5.06 log10 CFU and 5.18 log10 CFU and 5.20 log10 CFU and 5.51 log10 CFU and 5.32 log10 CFU
- Mean log10 CFU ([5]; oral 5.0 mg/kg daily): 5.27 log10 CFU
- log10 CFU ([5]; oral 10 mg/kg daily, 10 mg/kg): 4.27 log10 CFU and 4.72 log10 CFU and 4.15 log10 CFU and 4.00 log10 CFU and 3.48 log10 CFU and 4.54 log10 CFU and 3.30 log10 CFU and 3.00 log10 CFU and 4.48 log10 CFU
- Mean log10 CFU ([5]; oral 10 mg/kg daily): 3.99 log10 CFU
- reductions in viable M. tuberculosis H37Rv ([5]; oral 5.0 and 10 mg/kg, 26 days post-infection): significant reductions
